Reference: patent US9688662B2, “N-(2,3-dihydro-1H-pyrrolo[2,3-b]pyridin-5-yl)-4-quinazolinamine and N-(2,3-dihydro-1H-indol-5-yl)-4-quinazolinamine derivatives as perk inhibitors” (Janssen Pharmaceutica NV, priority 2013, dated 2017)

Tests used:
PERK [1] = target: T1, PERK (Homo sapiens, UniProt Q9NZJ5); assay: Cell-based PERK inhibition assay (TR-FRET, phosphorylation of GFP-eIF2 alpha in HEK293 cells, tunicamycin)
T1 sequence (Q9NZJ5 30-1116): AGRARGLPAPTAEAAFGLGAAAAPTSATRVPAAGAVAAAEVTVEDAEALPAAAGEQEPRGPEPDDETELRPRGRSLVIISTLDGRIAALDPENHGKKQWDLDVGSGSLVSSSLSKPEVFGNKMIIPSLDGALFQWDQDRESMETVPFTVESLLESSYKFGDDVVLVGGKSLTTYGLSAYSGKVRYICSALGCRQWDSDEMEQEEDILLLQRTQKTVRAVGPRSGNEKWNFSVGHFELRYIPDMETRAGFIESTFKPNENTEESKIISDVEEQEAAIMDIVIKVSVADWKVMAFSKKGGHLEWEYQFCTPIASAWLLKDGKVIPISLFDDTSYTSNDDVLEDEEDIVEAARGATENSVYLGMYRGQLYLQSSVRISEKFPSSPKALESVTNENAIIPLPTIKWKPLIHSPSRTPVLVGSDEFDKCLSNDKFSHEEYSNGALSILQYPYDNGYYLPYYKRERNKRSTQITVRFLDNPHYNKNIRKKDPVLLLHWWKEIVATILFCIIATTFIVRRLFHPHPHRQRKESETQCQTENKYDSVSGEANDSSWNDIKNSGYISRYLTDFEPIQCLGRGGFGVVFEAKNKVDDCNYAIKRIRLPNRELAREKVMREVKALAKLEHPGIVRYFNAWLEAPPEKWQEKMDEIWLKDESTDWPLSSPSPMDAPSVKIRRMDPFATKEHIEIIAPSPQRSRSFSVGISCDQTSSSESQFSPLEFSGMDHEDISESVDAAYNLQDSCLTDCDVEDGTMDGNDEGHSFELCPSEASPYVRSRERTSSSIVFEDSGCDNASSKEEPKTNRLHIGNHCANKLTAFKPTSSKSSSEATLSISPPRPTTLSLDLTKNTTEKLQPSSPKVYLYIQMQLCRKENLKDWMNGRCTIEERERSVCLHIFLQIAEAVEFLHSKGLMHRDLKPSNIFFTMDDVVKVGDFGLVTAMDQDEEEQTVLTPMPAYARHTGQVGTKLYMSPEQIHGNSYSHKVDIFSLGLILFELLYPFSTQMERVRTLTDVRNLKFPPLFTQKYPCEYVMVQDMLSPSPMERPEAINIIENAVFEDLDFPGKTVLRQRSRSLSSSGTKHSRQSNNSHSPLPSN
Description: A cell-based TR-FRET assay to measure inhibition of phosphorylation of GFP-eIF2 alpha expressed in HEK293 cells by compounds was set up as follows:
LanthaScreen® eIF2α GripTite cells (Invitrogen M4387) were plated and incubated for 16-20 h at 37° C. and 5% CO2, incubated with test compounds for 60 min, and then stimulated with tunicamycin (2 microg/ml) for 120 min. Culture medium was aspirated from the wells and, the cells were lysed in LanthaScreen® Cellular Assay Lysis Buffer (Invitrogen; PV5598), supplemented with protease inhibitor cocktail (Sigma P8340, 1/1000 dilution) and phosphatase inhibitor cocktail (Sigma P0044, 1/1000 dilution), including 2 nM terbium-labeled eIF2a pSer52 antibody (Invitrogen; PV4816).

PERK [2] = target: T1, PERK; assay: In-vitro PERK enzyme inhibition assay (LanthaScreen, KIN_PERK); assay type: biochemical; set-up: GST (N); purchased Invitrogen PV5106; conditions: recombinant GST-PERK, GFP-eIF2 alpha substrate, 5 μM ATP, 60 minutes; for IC50: read-out: KIN_PERK pIC50 (converted)
Description: Pharmacology i) In-Vitro PERK Enzyme Inhibition Assay (KIN_PERK pIC50)
The compounds of the invention were tested for inhibitory activity against PERK in an enzyme inhibition assay.
A biochemical PERK kinase assay using LanthaScreen® technology from Invitrogen using recombinant GST-PERK (Invitrogen PV5106), GFP-eIF2 alpha (full length) as substrate (Invitrogen PV4809) and the Terbium-labeled antibody (Tb-anti-peIF2alpha (pSer52); Invitrogen PV4816) as detection reagent, was performed essentially as described by the manufacturer, using following specific parameters: […]

[3] = HEK293 (LanthaScreen eIF2α GripTite) cells, compounds 60 min, tunicamycin 2 microg/ml 120 min, read-out: P-eIF2alpha_Lantha_cell pIC50 (converted)
[4] = HEK293 (LanthaScreen eIF2α GripTite) cells, compounds 60 min, tunicamycin 2 microg/ml 120 min

| Compound | IC50 (PERK [2]) [µM] | IC50 (PERK [1]; [3]) [µM] | also measured |
| --- | --- | --- | --- |
| COc1cc2ncnc(Nc3ccc4c(c3)CCN4C(=O)Cc3c(C)[nH]c4ccc(F)cc34)c2cc1OC [Compound 2] | 0.000631 |  | IC50 (PERK [1]): 0.0251 µM |
| COc1cc2ncnc(Nc3ccc4c(c3F)CCN4C(=O)Cc3cc(F)ccc3F)c2cc1OC [Compound 3] | 0.000398 | 0.0501 | melting point: 210 °C |
| COc1cc2ncnc(Nc3ccc4c(c3)CCN4C(=O)Cc3c(C)[nH]c4c(F)cccc34)c2cc1OC [Compound 4] |  |  | P-eIF2alpha_Lantha_cell pIC50 (PERK [1]; [4]): 7.4; KIN_PERK pIC50 (PERK [2]): 8.8 |
| COc1cc2ncnc(Nc3ccc4c(c3)CCN4C(=O)Cc3c(C)n(C)c4ccccc34)c2cc1OC [Compound 5] | 0.00126 | 0.0631 | melting point: 168 °C |
| COc1ccc2[nH]c(C)c(CC(=O)N3CCc4cc(Nc5ncnc6cc(OC)c(OC)cc56)ccc43)c2c1 [Compound 6] | 0.00158 | 0.0794 |  |
| COc1cc2ncnc(Nc3ccc4c(c3)CCN4C(=O)Cn3c(C)cc4ccc(F)cc43)c2cc1OC [Compound 7] |  |  | P-eIF2alpha_Lantha_cell pIC50 (PERK [1]; [4]): 7.1; KIN_PERK pIC50 (PERK [2]): 8.5 |
| COc1cc2ncnc(Nc3ccc4c(c3)CCN4C(=O)Cc3c(C)[nH]c4ccccc34)c2cc1OCCCN1CCOCC1 [Compound 8] |  | 0.158 | melting point: 216 °C |
| COc1cc2ncnc(Nc3ccc4c(c3)CCN4C(=O)Cn3nc(C)c4ccccc43)c2cc1OC [Compound 9] | 0.0158 | 0.251 |  |
| Cc1[nH]c2ccccc2c1CC(=O)N1CCc2cc(Nc3ncnc4cc5c(cc34)OCO5)ccc21 [Compound 10] | 0.00398 | 0.158 |  |
| COc1cc2ncnc(Nc3ccc4c(c3)CCN4C(=O)Cc3c(Br)cnn3C)c2cc1OC [Compound 11, 2-(4-bromo-2-methyl-pyrazol-3-yl)-1-[5-[(6,7-dimethoxyquinazolin-4-yl)amino]indolin-1-yl]ethanone] | 0.00794 | 0.251 | melting point: 170 °C |
| COc1cc2ncnc(Nc3ccc4c(c3)CCN4C(=O)Cc3cn(C)c4ccccc34)c2cc1OC [Compound 12] | 0.00501 | 0.2 |  |
| COc1cc2ncnc(Nc3ccc4c(c3)CCN4C(=O)Cn3ccc4ccc(F)cc43)c2cc1OC [Compound 13] | 0.00398 | 0.2 |  |
| COCCOc1cc2ncnc(Nc3ccc4c(c3)CCN4C(=O)Cc3c(C)[nH]c4ccccc34)c2cc1OCCOC [Compound 14] |  | 0.398 | melting point: 186 °C |
| COc1cc2ncnc(Nc3ccc4c(c3)C(F)(F)CN4C(=O)Cc3cc(F)ccc3F)c2cc1OC [Compound 18] | 0.0316 | 0.794 |  |
| COc1cc2ncnc(Nc3ccc4c(c3)CCN4C(=O)Cc3c(C)nc4ccccn34)c2cc1OC [Compound 19] | 0.0126 | 1.26 |  |
| COc1cc2ncnc(Nc3ccc4c(c3)CCN4C(=O)Cc3ccccc3)c2cc1OC [Compound 21] | 0.0251 | 1.26 |  |
| COc1cc2ncnc(Nc3ccc4c(c3)CCN4C(=O)Cc3ccsc3)c2cc1OC [Compound 22] | 0.0631 | 2 |  |
| COc1cc2ncnc(Nc3ccc4c(c3)CCN4C(=O)Cc3n[nH]c4ccc(F)cc34)c2cc1OC [Compound 23] | 0.0316 | 2 |  |
| COc1cc2ncnc(Nc3ccc4c(c3)CCN4C(=O)Cn3ncc4ccccc43)c2cc1OC [Compound 24] | 0.0794 | 3.16 |  |
| COc1cc2ncnc(Nc3ccc4c(c3)CCN4C(=O)COc3ccccc3C(C)=O)c2cc1OC [Compound 25] | 0.0794 | 3.16 |  |
| COc1cc2ncnc(Nc3ccc4c(c3)CCN4C(=O)Cc3n[nH]c4ccccc34)c2cc1OC [Compound 26] | 0.0631 | 3.16 |  |

| Compound | IC50 (PERK [2]) [µM] | IC50 (PERK [1]; [3]) [µM] | also measured |
| --- | --- | --- | --- |
| COc1cc2ncnc(Nc3ccc4c(c3)CCN4C(=O)Cc3c[nH]c4ncccc34)c2cc1OC [Compound 27] | 0.0631 | 3.98 |  |
| COc1cc2ncnc(Nc3ccc4c(c3)CCN4C(=O)Cn3c(=O)n(C)c4ccccc43)c2cc1OC [Compound 29] | 0.0501 | > 30.2 |  |
| COc1cc2ncnc(Nc3ccc4c(c3)CCN4C(=O)Cn3cnc4ccccc43)c2cc1OC [Compound 31] | 0.0631 | > 30.2 |  |
| COc1cc2ncnc(Nc3ccc4c(c3)CCN4C(=O)Cc3cc4ccccc4[nH]3)c2cc1OC [Compound 32] | 0.398 | > 30.2 |  |
| COc1cc2ncnc(Nc3ccc4c(c3)CCN4C(=O)Cc3c(-c4ccccc4)[nH]c4ccccc34)c2cc1OC [Compound 33] | 6.31 |  |  |
| COc1cc2ncnc(Nc3ccc4c(c3)CCN4C(=O)CN3Cc4ccccc4C3=O)c2cc1OC [Compound 34] | 1.58 |  |  |
| O=C(Cc1cc(F)ccc1F)N1CCc2cc(Nc3ncnc4cc5c(cc34)OCO5)ccc21 [Compound 35] | > 10 |  |  |
| COc1cc2ncnc(Nc3ccc4c(c3)CCN4C(=O)CN3C(=O)c4ccccc4C3=O)c2cc1OC [Compound 36] | 3.16 |  | melting point: 190 °C |
| COc1cc2ncnc(Nc3ccc4c(c3)CCN4C(=O)Cc3cn(C(C)C)c4ccccc34)c2cc1OC [Compound 37] | 1.58 |  |  |
| COc1cc2ncnc(Nc3cnc4c(c3)CCN4C(=O)Cc3cc(F)cc(C(F)(F)F)c3)c2cc1OC [Compound 38] | 3.16 |  |  |
| COc1cc2ncnc(Nc3ccc4c(c3)CCN4C(=O)Cc3cccc(C)n3)c2cc1OC [Compound 41] |  | 0.794 | melting point: 248 °C |
| COc1cc2ncnc(Nc3ccc4c(c3)CCN4C(=O)Cc3cc(F)cc(C(F)(F)F)c3)c2cc1OC [Compound 43] | 0.002 | 1.58 |  |
| COc1ccc2ncnc(Nc3ccc4c(c3)CCN4C(=O)Cc3cc(F)cc(C(F)(F)F)c3)c2c1 [Compound 44] | ~0.0214 | > 30.2 |  |
| COc1ccc2c(Nc3ccc4c(c3)CCN4C(=O)Cc3cc(F)cc(C(F)(F)F)c3)ncnc2c1 [Compound 45] | 0.0398 | > 30.2 |  |
| COc1cc2ncnc(Nc3ccc4c(c3)CCN4C(=O)Cc3c(-c4cccs4)cnn3C)c2cc1OC [Compound 46, 1-[5-[(6,7-dimethoxyquinazolin-4-yl)amino]indolin-1-yl]-2-[2-methyl-4-(2-thienyl)pyrazol-3-yl]ethanone] | 0.398 | ~11.5 |  |
| COc1cc2ncnc(Nc3ccc4c(c3)CCN4C(=O)Cc3ccnn3C)c2cc1OC [Compound 47, 1-[5-[(6,7-dimethoxyquinazolin-4-yl)amino]indolin-1-yl]-2-(2-methylpyrazol-3-yl)ethanone] | 0.0631 | 6.31 |  |
| COc1cc2ncnc(Nc3ccc4c(c3)CCN4C(=O)Cc3c(-c4ccccc4)cnn3C)c2cc1OC [Compound 48] | 0.251 | 1.26 |  |
| COc1cc2ncnc(Nc3ccc4c(c3)CCN4C(=O)Cc3c(-c4ccoc4)cnn3C)c2cc1OC [Compound 49] | 0.0501 | 3.16 |  |
| COc1cc2ncnc(Nc3ccc4c(c3)CCN4C(=O)Cc3c(-c4cnoc4)cnn3C)c2cc1OC [Compound 50] | 0.0794 | 3.16 |  |
| COc1cc2ncnc(Nc3ccc4c(c3)CCN4C(=O)Cc3c(-c4ccsc4)cnn3C)c2cc1OC [Compound 51] | 0.251 | 31.6 |  |
| COc1cc2ncnc(Nc3ccc4c(c3)CCN4C(=O)Cc3c(-c4cnn(C)c4)cnn3C)c2cc1OC [Compound 52] | 0.631 | > 30.2 |  |
